The numbers were not newly measured in US10792281B2 (priority 2014, dated 2020), which cites them from elsewhere.

What is called half-life is the time in which the quantity being followed falls by half.

Like-named read-outs stand apart in the source and are kept apart here.

Series [1] deals with nuclear factor kappa-B (NF-kB) and activator protein-1 (AP-1) activity.
The conditions of series [2]: human, in vivo.
Assay in series [3]: not given
The source holds these as a separate data set.

The conditions of series [4]: in vivo.

Take `Clc1ccc2c(c1)CCc1cccnc1C2=C1CCNCC1` [Desloratadine, desloratadine]: the half-life reads like this: (in vivo) 27 h; (slow metabolizers) > 50 h.
Regarding `CN(C)CCOC(c1ccccc1)c1ccccc1` [Diphenhydramine, diphenhydramine], in series [1], the “effect on AP-1 and NF-kB activity / RANTES production” value is reported as “ineffective”.
Consider `O=C(O)COCCN1CCN([C@H](c2ccccc2)c2ccc(Cl)cc2)CC1` [levocetirizine], for which the “doses that can be safely administered” value in series [2] is “up to 30 mg/day”. Besides, the peak concentration in series [3] (repeated 5 mg once daily oral dose) was 308 ng/mL; in series [3] (single 5 mg oral dose), 270 ng/mL. The “HRV-induced ICAM-1, cytokine expression, and viral replication” value with human rhinovirus (HRV) (airway epithelial cells from both the nose and lung) is on record as “inhibit”. For the same molecule, the “decrease of viral titers” value with human rhinovirus (HRV) (in vitro, e.g. rhinovirus) is recorded as 2 log.
As for `CN(c1nccc(=O)[nH]1)C1CCN(c2nc3ccccc3n2Cc2ccc(F)cc2)CC1` [mizolastine], the bioavailability entry (in vivo) is “high”.
As to `CC(C)(O)c1ccccc1CC[C@@H](SCC1(CC(=O)O)CC1)c1cccc(/C=C/c2ccc3ccc(Cl)cc3n2)c1` [montelukast], the “time to peak plasma concentration” value in series [4] was 3 to 4 h. Also, in series [4] (po), the “effect of food on oral bioavailability and Cmax” value is on record as “not affected by a standard meal”. For the same molecule, in series [4] (po, 10 mg), the AUC range is 1521 to 4595 ng/h/mL and the “mean AUC” value was 2689 ng/h/mL. Moreover, the “doses without clinically relevant side effects” value in series [2] was “up to 200 mg/day”. The drug interactions entry in series [2] (po) is “no drug interactions”.
